Experimental data published in a melting point compilation (Tetko et al.).

Row | SMILES | melting point
1 | CC(=O)OC1CCC2(C)C(CCC3C4CCC(=O)C4(C)CCC32)C1 (stereo not given) | 138 °C
2 | c1c2c(cc3c1OCO3)CC2 | 62 °C
3 | Oc1cc(Br)ccc1Cl | 57 °C
4 | O=C(Cl)c1cccc(C(Cl)Cl)c1 | 57 to 63 °C
5 | CCNc1cc2oc(=O)cc(C)c2cc1C | 168 to 170 °C
6 | Cc1cccc(NN=C2C(=O)N(C)C(=O)N(C)C2=O)c1 | 228 °C
7 | N#Cc1cccc(F)c1 | -16 °C
8 | CC(=O)OC1CCC2(C)C(C1)CC1(OCCO1)C1C2CCC2(C)C1CCC21OCCO1 (stereo not given) | 205 to 210 °C
9 | CCOC(=O)c1ccc(F)cc1F | 65 to 67 °C
10 | O=C(O)CCc1ccc(Cl)cc1 | 119 °C
11 | CC1=CCC(=O)Nc2c1cnn2-c1ccc(Cl)cc1 | 177 to 178 °C
12 | Clc1ccc2c(c1)N=C(N1CCN(C3=Nc4cc(Cl)ccc4Nc4ccccc43)CC1)c1ccccc1N2 | 333 to 335 °C
13 | CCc1c(C)[nH]c2ccc(N(C)C)cc12 | 100 °C
14 | Clc1cccnc1-c1ccnc(Cl)c1Cl | 169 °C
15 | CCCCCCCCCCCCCCCCOCCOCCOCCOCCOCCOCCOCCOCCOCCOCCOCCOCCOCCOCCOCCOCCOCCOCCOCCOCCO | 35.4 to 39.6 °C
16 | COC(=O)c1ccc(C(F)(F)F)cc1 | 14 °C
17 | COC(=O)c1cc(I)cc(C(=O)OC)c1 | 105 to 107 °C
18 | CCCCC(CC)CO (stereo not given) | -70 °C
19 | C#CCCCC#C | -85 °C
20 | Nc1ccc(F)c(C(=O)O)c1 | 191 °C
21 | CCCCCCCCCCCCCCCCCCc1ccccc1 | 29 °C
22 | CC(=O)OC[C@@H](OC(C)=O)[C@@H](OC(C)=O)[C@H](OC(C)=O)[C@@H](OC(C)=O)C(=O)O | 109 to 111 °C
23 | O=C(O)c1ccc(F)cc1O | 191 °C
24 | CC=CC=C(C)C | -74.2 °C
25 | COCCOc1ccc(CCC(=O)O)cc1N | 93.5 to 98 °C
26 | CC(C)(C)OC(=O)N1CCN(c2ccc(CN)cc2)CC1 | 83 to 87 °C

Row | SMILES | melting point
27 | NNc1ncc(C(F)(F)F)cc1Cl | 90 to 92 °C
28 | OCc1ccc(-c2cccs2)s1 | 51 to 54 °C
29 | COc1cc(C)c(S(=O)(=O)Cl)c(C)c1C | 58 °C
30 | FC(F)(F)c1n[nH]c(=S)[nH]1 | 161 to 164 °C
31 | C=Cc1ccc(I)cc1 | 44 °C
32 | Nc1cc(F)ccc1O | 140 °C
33 | O=C1CCSc2ccc(F)cc21 | 94 to 95 °C
34 | CC(=O)c1ccc(C)cc1O | 21 °C
35 | CCOC(=O)C1=C(C)OC(N)=C(C#N)C1c1ccc(N2CCOCC2)cc1 (stereo not given) | 152 to 159 °C
36 | N=C(N)S(=O)O | 126 °C
37 | NNC(=S)NN | 168 to 172 °C
38 | O=C(O)COc1c(Cl)ccc(Cl)c1Cl | 148 °C
39 | CC(C(=O)O)c1ccc(N2CC=CC2)c(Cl)c1 (stereo not given) | 99 °C
40 | ClCc1cc(Cl)cc2c1OCOC2 | 101 °C
41 | OCCCc1nc2ccccc2[nH]1 | 164 to 166 °C
42 | CCCCCCCCCCS | -26 °C
43 | C=CC1(C)OC(=O)N(c2cc(Cl)cc(Cl)c2)C1=O (stereo not given) | 108 °C
44 | O=CCCl | -16.3 °C
45 | C1CSCSC1 | 54 °C
46 | Cc1nc(Br)sc1C(=O)O | 149 to 150 °C
47 | NC(=O)C(Br)CBr (stereo not given) | 133 °C
48 | COC(=O)c1cccoc1=O | 76 °C
49 | O=c1[nH]c2ccccc2n1CCCN1CCN(C(c2ccccc2)c2ccccc2)CC1 | 154 °C
50 | Cc1cc(=O)oc2[nH]nc(C)c12 | 251 to 252 °C
51 | CCCCCC(=O)CC(C)=O | -18 °C
52 | Oc1ccc(Cl)cc1Cc1cc(Cl)ccc1O | 178 °C

Row | SMILES | melting point
53 | Nc1ccc(N=Nc2ccc(N)cc2)cc1 | 250 °C
54 | COC(=O)c1cc(C)n(CO)n1 | 89 °C
55 | CC1CCC(C)(C(=O)CCOC(=S)Nc2ccccc2)C1(C)C (stereo not given) | 154 °C
56 | CC1(C)C2CCC1(CS(=O)(=O)Cl)C(=O)C2 (stereo not given) | 66 °C
57 | CC(C)CC(C)(C)CO | -70 °C
58 | CC(=O)OC1CCC2(C)C(CCC3C2CCC2(C)C3CCC23OCCO3)C1 (stereo not given) | 153 °C
59 | CNC(=O)ON=CC(C)(C)S(C)(=O)=O | 141 °C
60 | CC(=O)Oc1c(C)cc(O)c(C)c1C | 108 to 109 °C
61 | CCCCCCCCCCCCCCCCCCOCCOCCOCCOCCOCCOCCOCCOCCOCCOCCOCCOCCOCCOCCOCCOCCOCCOCCOCCOCCO | 44 to 46 °C
62 | O=Cc1csnn1 | 85 to 87 °C
63 | O=C1CNCCN1 | 132 °C
64 | NN1CCN(CCO)CC1 | 102 to 107 °C
65 | O=S(=O)(Cl)Cc1ccc(Br)cc1 | 117 to 121 °C
66 | CC1CCS(=O)(=O)C1 (stereo not given) | 1 °C
67 | Clc1nc[nH]c1Cl | 185 to 186 °C
68 | Cn1ncc(C(=O)Cl)c1Cl | 50 to 52 °C
69 | Nc1ccc(F)nc1 | 91 °C
70 | Cn1cc(S(=O)(=O)Cl)c(C(F)(F)F)n1 | 34 to 36 °C
71 | O=C1C2CC3CC(C2)CC1C3 | 286 °C
72 | COC(=O)C1(C(=O)OC)Cc2cccc(OC)c2C(=O)O1 | 88.7 to 89.7 °C
73 | Cc1cc(C)c2c(=O)n(C)c(S)nc2n1 | 234 to 236 °C
74 | COc1cc(C)nc(N)n1 | 161 °C
75 | CCOC(=O)c1ccccc1C(=O)OCC | -40.5 °C
76 | NC(=O)NN=CC(=O)c1ccc(C(=O)C=NNC(N)=O)cc1 | 246 °C

Now from value to compound:

Row | melting point | SMILES
77 | 111 °C | CC(=O)Nc1cc(Cl)c(F)cc1[N+](=O)[O-]
78 | 119 to 124 °C | Oc1ccc(-n2cccc2)cc1
79 | 66 to 69 °C | Cc1nccc(-c2cccc(Br)c2)n1
80 | 90 to 91 °C | O=S(=O)(c1ccccc1)n1cc(CO)c2ccccc21
81 | 97 °C | C#CC(C)(CC)OC(=O)c1ccccc1C(=O)O (stereo not given)
82 | 94 °C | CC(=O)NCCc1ccccc1[N+](=O)[O-]
83 | 129 to 132 °C | COc1ccc(C(=O)CC#N)cc1
84 | 195 to 196 °C | O=[N+]([O-])c1cc([N+](=O)[O-])c(C(/C(=N/Nc2ccccc2)c2ccccc2)c2ccccc2)cc1Cl (stereo not given)
85 | 96 °C | CCN(Cc1ccncc1)C(=O)C(CO)c1ccccc1 (stereo not given)
86 | 82 to 86 °C | Cc1ccc(-c2cc[nH]n2)cc1
87 | 85 °C | Cc1ccc(CCc2ccc(C)cc2)cc1
88 | 288 to 290 °C | C/C(=N\NC(=O)c1ccccn1)c1c(O)c2ccccc2n(-c2ccccc2)c1=O
89 | 155 °C | Cc1nc2ccc([N+](=O)[O-])cc2o1
90 | 212 °C | O=[N+]([O-])c1ccc(N=Nc2ccc([N+](=O)[O-])cc2)cc1
91 | 130 °C | COc1ccc2c(=O)n3ccccc3cc2c1
92 | 117 °C | O=C(CCc1ccccc1)NNc1ccccc1
93 | 70.5 to 73 °C | Cc1ccc(S(=O)(=O)OCCCCCCOS(=O)(=O)c2ccc(C)cc2)cc1
94 | 322 °C | CC1(C)OC(=O)C(=Cc2cccc([N+](=O)[O-])c2)C(=O)O1
95 | 106 to 108 °C | CCOC(=O)CC1Sc2ccccc2NC1=S (stereo not given)
96 | 162 °C | O=C(NCO)NS(=O)(=O)c1ccc(NC(=O)c2ccccc2C(=O)O)cc1
97 | 46 to 47 °C | COC(=O)c1cccc2cc[nH]c12
98 | 66 to 68 °C | CCCCc1ccc(/N=N/c2ccc(OCCC)cc2)cc1
99 | 61 to 63 °C | O=C=Nc1ccc(OCc2ccccc2)cc1
100 | 102 °C | Cc1nn(C)c(Oc2ccccc2)c1C=NOCc1ccc(C(=O)OC(C)(C)C)cc1
101 | 38 to 39.5 °C | Cc1cncc(Oc2cccc(Br)c2)n1
102 | 70 °C | Cc1cc(OCc2ccccc2)ccc1[N+](=O)[O-]
103 | 152 °C | O=C(c1ccc2ccccc2c1)C(O)c1ccccc1 (stereo not given)

Row | melting point | SMILES
104 | 145 to 148 °C | CCOC(=O)c1c2n(n(-c3ccc([N+](=O)[O-])cc3)c1=N)C(=O)CS2
105 | 10 °C | CCCC(=O)c1ccccc1O
106 | 134 °C | O=C(O)c1ccccc1Nc1cccc(C(F)(F)F)c1
107 | 168 °C | NC(=O)NN=C(O)Cc1ccccc1
108 | 150 °C | c1ccc(C2=NN(c3ccccc3)CN2c2ccccc2)cc1
109 | -11 °C | CCc1ccccc1Cc1ccccc1
110 | 105 °C | O=Cc1cccc2c(Br)cccc12
111 | 132 °C | COc1ccc(N=[N+]([O-])c2ccc(OC)cc2)cc1
112 | 120 °C | COc1ccc(-c2onc(C(=O)c3cccs3)c2S(=O)(=O)c2ccccc2)cc1
113 | 130 °C | O=C(NC(Cc1ccco1)C(=O)O)OCC1c2ccccc2-c2ccccc21 (stereo not given)
114 | 55 to 59 °C | CC(=O)CS(=O)(=O)c1ccccc1
115 | 132 to 134 °C | COc1cc2c(cc1OC)C(c1ccccc1[N+](=O)[O-])N(C(C)=O)CC2 (stereo not given)
116 | 135 to 136 °C | CC(=O)N1C(=O)N2CCc3ccccc3C2(c2ccc(Cl)cc2)C1=O (stereo not given)
117 | 156 °C | O=[N+]([O-])c1cc(S(=O)(=O)Nc2ccccc2)ccc1Nc1ccccc1
118 | 213 to 215 °C | COc1ccc(C=Nc2ccc(C3=NNC(=O)CC3)cc2)cc1
119 | 140 °C | COc1ccc(-c2csc(/C(C#N)=C\c3cccs3)n2)cc1
120 | 74 °C | C[C@H](C[C@H](I)C(C)(C)C)S(=O)(=O)c1ccccc1
121 | 253 °C | N#C/C(=N\Nc1ccc(Cl)cc1)c1nc2ccccc2c(=O)[nH]1
122 | 131 °C | CC(=O)C(C(=O)c1ccccc1)c1cc(Cl)c([N+](=O)[O-])cc1[N+](=O)[O-] (stereo not given)
123 | 183 °C | Cc1cc(Br)ccc1C(=O)O
124 | 195 to 196 °C | Cc1nc(N)nc(Cl)c1Cc1ccccc1
125 | 74 °C | CC(O)c1ccc2ccccc2c1 (stereo not given)
126 | 164 °C | O=C(C(=O)c1ccco1)c1ccco1
127 | 110 to 112 °C | CCOC(=O)c1cnc2c(c(C)nn2C)c1Oc1ccc(F)cc1
128 | 59.5 °C | Cc1ccc(C(=O)c2ccccc2)cc1
129 | 84 to 85.5 °C | CC1c2ccccc2C(=O)C1c1ccccc1 (stereo not given)
130 | 131 °C | O=[N+]([O-])c1ccccc1/C=C/c1nc2ccccc2s1
